From paper PMC8308786, “Discovery and Characterization of a Novel MASTL Inhibitor MKI-2 Targeting MASTL-PP2A in Breast Cancer Cells and Oocytes” (Pharmaceuticals, 2021)
pIC50: −log10 of the molar value.

Molecular target: T1, MASTL (Homo sapiens, UniProt Q96GX5)
T1 construct: recombinant GST-tagged-MASTL
T1 sequence (Q96GX5 1-879): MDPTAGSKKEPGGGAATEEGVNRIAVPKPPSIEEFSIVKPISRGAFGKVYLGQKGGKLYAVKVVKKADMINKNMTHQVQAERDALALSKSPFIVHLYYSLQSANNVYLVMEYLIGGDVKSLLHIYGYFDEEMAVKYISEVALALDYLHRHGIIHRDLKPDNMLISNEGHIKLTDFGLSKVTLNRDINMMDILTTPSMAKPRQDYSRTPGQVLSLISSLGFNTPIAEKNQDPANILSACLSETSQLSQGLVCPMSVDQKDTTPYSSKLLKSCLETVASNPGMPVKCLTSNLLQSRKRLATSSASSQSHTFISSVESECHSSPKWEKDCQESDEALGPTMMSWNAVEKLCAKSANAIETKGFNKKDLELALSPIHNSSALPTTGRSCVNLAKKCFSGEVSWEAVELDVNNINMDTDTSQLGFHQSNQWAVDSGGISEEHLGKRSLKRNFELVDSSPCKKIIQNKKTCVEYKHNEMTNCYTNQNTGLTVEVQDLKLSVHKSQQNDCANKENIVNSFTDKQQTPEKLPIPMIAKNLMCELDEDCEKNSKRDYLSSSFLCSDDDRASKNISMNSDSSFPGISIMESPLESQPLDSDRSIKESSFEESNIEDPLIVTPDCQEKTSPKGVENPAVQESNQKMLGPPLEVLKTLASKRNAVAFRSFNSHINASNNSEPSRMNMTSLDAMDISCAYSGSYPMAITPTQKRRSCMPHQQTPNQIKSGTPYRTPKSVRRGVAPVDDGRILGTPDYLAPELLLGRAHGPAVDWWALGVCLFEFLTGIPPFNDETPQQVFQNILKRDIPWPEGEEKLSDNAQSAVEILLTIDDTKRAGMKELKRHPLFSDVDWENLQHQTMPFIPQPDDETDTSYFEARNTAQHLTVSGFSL
Assay: in vitro kinase assay with recombinant GST-MASTL and His-ENSA substrate; also HTRF KinEASE and ADP-Glo
Assay type: biochemical

In the case of `N#CCc1ccc(Nc2nc(Nc3cc(C4CC4)[nH]n3)c3ccccc3n2)cc1` [#248, 2-(4-((4-((5-cyclopropyl-1H-pyrazol-3-yl)amino)quinazolin-2-yl)amino)phenyl)acetonitrile], the pIC50 was 7.43.
